Tests used:
female BALB/c mice = assay: Xylazine/ketamine-induced anesthesia; type: in vivo, mouse; details: 0.1–1 μmol/kg s.c., 15 min before anesthesia
Protocol: According to the method described by Robichaud et al. and modified by us, S-petasin (10–100 μmol/kg, s.c.) or rolipram (0.01–1 μmol/kg, s.c.), a reference drug, was injected into 8–12 week-old female BALB/c mice 1 h or 15 min, respectively, prior to an i.p. injection of xylazine (10 mg/kg)/ketamine (70 mg/kg). The vehicle (control) for S-petasin or for rolipram was a mixture of alcohol : DMSO : 30% HPβCD : saline (0.5 : 0.5 : 1 : 8 , v/v), or alcohol : DMSO : PEG 400 : saline (0.5 : 0.5 : 1 : 8, v/v), respectively. After loss of the righting reflex (i.e., when a mouse remained on its back and no longer spontaneously righted itself to a prone position), the duration of anesthesia was measured until its return as an endpoint.

PDE1 = assay: Inhibition of PDE1 activity (two-step radioenzymatic assay); type: biochemical, guinea pig; details: mean ± SEM (n); read-out: IC50 on PDE isozyme 1
Protocol: Activities of PDE1–5, partially separated from guinea pig lungs and hearts according to the method described by Ko et al., were measured with a two-step procedure according to the method of Thompson and Appleman, using cAMP with [^3H]-cAMP or cGMP with [^3H]-cGMP as substrates. The enzyme pμreparation (25 μL) was incubated for 30 min at 37°C in a total assay volume of […] containing 50 mM Tris-HCl (pH 7.4), 3 mM MgCl2, 1 mM dithiothreitol, 0.05% BSA, 1 μM cAMP with 0.2 μCi [^3H]-cAMP as a substrate alone or in the presence of 0.1 units calmodulin with 10 μM CaCl2 or 5 μM cGMP, and 1 μM cGMP with 0.2 μCi [^3H]-cGMP as another substrate alone or in the presence of 0.1 units calmodulin with 10 μM CaCl2. In tests of enzyme inhibition, the reaction mixture contained 10 μL of vehicle or inhibitors, at various concentrations of S-petasin or selective PDE1–5 inhibitors, such as vinpocetin [22], EHNA [23], milrinone, Ro 20-1724 [25] and zaprinast, as reference drugs. The reagents and homogenate were mixed on ice, and the reaction was initiated by transferring the mixture to a water bath at 37°C. Following a 30-min incubation, the reaction was stopped by transferring the reaction vessel to a bath of boiling water for 3 min. After cooling on ice, 20 μL of a 1 mg/mL solution of C. atrox snake venom was added to the reaction mixture, and the mixture was incubated at 37°C for 10 min. […]

guinea pig trachea = details: cited from earlier work
[1] = test system: cAMP-phosphodiesterase (PDE); design: method as in PMID 11345692; details: cited from earlier work

## COc1ccc(C2CNC(=O)C2)cc1OC1CCCC1 (centres unmarked) [rolipram, reference compound]
Female BALB/c mice
  Duration of xylazine/ketamine-induced anesthesia: dose-dependently and significantly shortened

## CCOC(=O)C1=C[C@]2(CC)CCCN3CCc4c(n1c1ccccc41)[C@@H]32 [vinpocetin, Vinpocetine, reference compound]
PDE1
  IC50: 36.5 ± 8.8 µM

## S-isopetasin
Guinea pig trachea; precontracted by CCh and KCl, read-out: IC50 in relaxing guinea pig trachea
  IC50: ~10 µM
Guinea pig trachea; precontracted by histamine and LT D4
  Relaxing effect on guinea pig trachea: almost no effect
[1]
  Inhibition of cAMP-phosphodiesterase (PDE) activity: not

— PMC3094704, “S-Petasin, the Main Sesquiterpene of Petasites formosanus, Inhibits Phosphodiesterase Activity and Suppresses Ovalbumin-Induced Airway Hyperresponsiveness” (Evidence-based Complementary and Alternative Medicine : eCAM, 2011)
